The test addresses Delta-type opioid receptor (Homo sapiens, UniProt P41143). Put plainly: In vitro binding affinity against cloned human Opioid receptor delta 1 expressed in HEK 293S cells.

Structures are written as SMILES.

Chain of Delta-type opioid receptor (P41143 whole entry): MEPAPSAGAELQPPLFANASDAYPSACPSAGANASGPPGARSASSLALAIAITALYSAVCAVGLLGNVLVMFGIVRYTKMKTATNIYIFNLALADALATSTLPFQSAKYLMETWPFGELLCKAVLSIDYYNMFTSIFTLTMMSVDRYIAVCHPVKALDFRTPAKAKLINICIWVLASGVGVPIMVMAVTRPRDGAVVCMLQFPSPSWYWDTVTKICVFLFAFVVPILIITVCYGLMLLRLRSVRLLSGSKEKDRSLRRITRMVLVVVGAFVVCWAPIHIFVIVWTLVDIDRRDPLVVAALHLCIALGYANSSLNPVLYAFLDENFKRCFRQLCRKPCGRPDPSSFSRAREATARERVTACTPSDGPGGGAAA

As usually defined, the IC50 is the concentration at which inhibition is half-maximal. Regarding `C[C@H]1C2C3=CC=CCC3[C@@H](Cc3ccccc32)N1C` (stereo partly drawn) [16,17-dimethyl-(16S)-17-azatetracyclo[7.6.2.02,7.010,15]heptadeca-2(7),3,5,12,14-pentaene], the IC50 is > 10 µM.

Source of the values: BindingDB's records for doi:10.1021/jm020164l (University of Montreal, 2002).
